Assay results from publication PMC8944975, “Secretin Receptor as a Target in Gastrointestinal Cancer: Expression Analysis and Ligand Development” (Biomedicines, 2022).
Like-named read-outs stand apart in the source and are kept apart here.

Biological target: human SCTR (Homo sapiens, UniProt P47872)
Experiment: agonist-induced β-arr2-GFP translocation
Type: cell-based
Set-up: expressed in transfected cells; host or cells: U2OS (human osteosarcoma), stably co-transfected with β-arrestin2-GFP
Conditions: for β-arrestin2-GFP agonism efficacy: % of wild-type secretin; for EC50: mean of at least three independent experiments in duplicates
Source text: U2OS-SCTR/β-arr2-GFP: human osteosarcoma cell line U2OS (purchased from ATCC/LGC Standards, Wesel, Germany) were stably transfected with plasmids encoding SCTR (Homo sapiens) and the fusion protein β-arrestin2-green fluorescent protein (GFP) (Rattus norvegicus-Aequorea victoria) (β-arr2-GFP).
To evaluate reactivity of human SCTR exposed to different ligand variants, intracellular translocation of a fusion protein of β-arrestin2 and green fluorescent protein was utilized. For evaluation of activation, receptor-mediated recruitment of cytoplasmic β-arr2-GFP was monitored through its translocation into condensed intracellular vesicles. The extent of translocation events was quantified by determining the increasing granularization of the intracellular fluorescence utilizing an automated high-throughput microscope in combination with computational algorithms to estimate potency (EC50) and efficacy, thus characterizing ligand-SCTR interaction. U2OS-SCTR/β-arr2-GFP cells were seeded in 96-well cell culture plates to 60–80% confluence. On the following day, preceding stimulation, cells were incubated for one hour in serum-free medium. Ligand variants were applied as serial dilutions in assay buffer C1. After preincubation, supernatant was discarded by tapping plates overhead repeatedly. For stimulation, 50 µL of ligand dilution was applied per well in duplicates and incubated for 20 min at 37 °C. Successively, cells were fixed by applying 4% buffered formaldehyde (Herbeta Arzneimittel, Berlin, Germany) for 10 min at room temperature and consecutively permeabilized for 10 min at room temperature with 0.1% TritonX-100 in PBS, containing DAPI (4′,6-Diamidin-2-phenylindol, SigmaAldrich, Deisenhofen, Germany, 1 µg/mL) to counterstain nuclei. Microscopic images were recorded by an IN Cell Analyzer 1000 (GE Healthcare, Reading, UK) with 20× magnification at 5 frames per well in a 96-well format. Image processing was performed with IN Cell Investigator software (GE Healthcare, Reading, UK), applying the provided granularity algorithm. The output of the analysis was indicated as vesicle area/cell and was utilized for calculation of concentration–response curves. Parameters derived from curve fitting included the concentration of half-maximal activity (EC50), and intrinsic activity. Intrinsic activity was normalized defining reaction to non-modified wild type secretin as the 100% curve maximum value.

[1] = Supplementary Tables S1 and S2, decimal comma, '-' not detectable (Figure 4)
[2] = Supplementary Tables S1 and S2, U2OS-SCTR/β-arr2-GFP cells, 20 min at 37 °C, decimal comma, '-' not detectable (Figure 4), read-out: β-arrestin2-GFP agonism potency

Sequence of human SCTR (P47872 23-440): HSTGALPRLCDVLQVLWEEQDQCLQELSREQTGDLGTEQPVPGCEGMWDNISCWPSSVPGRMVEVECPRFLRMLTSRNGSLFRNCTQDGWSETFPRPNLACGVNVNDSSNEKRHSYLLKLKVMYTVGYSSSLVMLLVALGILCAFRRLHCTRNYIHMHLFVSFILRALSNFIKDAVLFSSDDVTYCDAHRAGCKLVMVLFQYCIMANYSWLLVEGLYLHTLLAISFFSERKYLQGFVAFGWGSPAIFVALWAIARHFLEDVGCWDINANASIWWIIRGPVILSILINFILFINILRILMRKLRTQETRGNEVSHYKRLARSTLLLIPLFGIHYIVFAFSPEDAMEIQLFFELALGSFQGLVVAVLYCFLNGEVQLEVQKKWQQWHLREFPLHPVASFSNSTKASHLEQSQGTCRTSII

Row | Molecule | β-arrestin2-GFP agonism efficacy [1] | EC50 [2] [nM] | also measured
1 | CC(C)C[C@H](NC(=O)CNC(=O)[C@H](CCC(N)=O)NC(=O)[C@H](CC(C)C)NC(=O)[C@H](CC(C)C)NC(=O)[C@H](CCCNC(=N)N)NC(=O)[C@H](CCC(N)=O)NC(=O)[C@H](CC(C)C)NC(=O)[C@H](CCCNC(=N)N)NC(=O)[C@H](C)NC(=O)CNC(=O)[C@H](CCC(=O)O)NC(=O)[C@H](CCCNC(=N)N)NC(=O)[C@H](CC(C)C)NC(=O)[C@H](CCCNC(=N)N)NC(=O)[C@H](CO)NC(=O)[C@H](CC(C)C)NC(=O)[C@H](CCC(=O)O)NC(=O)[C@H](CO)NC(=O)[C@@H](NC(=O)[C@H](Cc1ccccc1)NC(=O)[C@@H](NC(=O)CNC(=O)[C@H](CC(=O)O)NC(=O)[C@H](CO)NC(=O)[C@@H]1CCCN1)[C@@H](C)O)[C@@H](C)O)C(=O)N[C@H](C(=O)O)C(C)C [Peptide 73] | 96,57 % Sec | 39.1 | 
2 | CC(C)C[C@H](NC(=O)CNC(=O)[C@H](CCC(N)=O)NC(=O)[C@H](CC(C)C)NC(=O)[C@H](CC(C)C)NC(=O)[C@H](CCCNC(=N)N)NC(=O)[C@H](CCC(N)=O)NC(=O)[C@H](CC(C)C)NC(=O)[C@H](CCCNC(=N)N)NC(=O)[C@H](C)NC(=O)CNC(=O)[C@H](CC(=O)O)NC(=O)[C@H](CCCNC(=N)N)NC(=O)[C@H](CC(C)C)NC(=O)[C@H](CCCNC(=N)N)NC(=O)[C@H](CO)NC(=O)[C@H](CC(C)C)NC(=O)[C@H](CCC(=O)O)NC(=O)[C@H](CO)NC(=O)[C@@H](NC(=O)[C@H](Cc1ccccc1)NC(=O)[C@@H](NC(=O)CNC(=O)[C@H](CC(=O)O)NC(=O)[C@H](CO)NC(=O)[C@@H](N)Cc1c[nH]cn1)[C@@H](C)O)[C@@H](C)O)C(=O)N[C@H](C(=O)O)C(C)C [Peptide 69] | 111,23 % Sec | 4.52 | 
3 | CC(C)C[C@H](NC(=O)CNC(=O)[C@H](CCC(N)=O)NC(=O)[C@H](CC(C)C)NC(=O)[C@H](CC(C)C)NC(=O)[C@H](CCCNC(=N)N)NC(=O)[C@H](CCC(N)=O)NC(=O)[C@H](CC(C)C)NC(=O)[C@H](CCCNC(=N)N)NC(=O)[C@H](C)NC(=O)CNC(=O)[C@H](CCC(=O)O)NC(=O)[C@H](CCCNC(=N)N)NC(=O)[C@H](CC(C)C)NC(=O)[C@H](CCCNC(=N)N)NC(=O)[C@H](CO)NC(=O)[C@H](CC(C)C)NC(=O)[C@H](CCC(=O)O)NC(=O)[C@H](CO)NC(=O)[C@@H](NC(=O)[C@H](C)NC(=O)[C@@H](NC(=O)CNC(=O)[C@H](CC(=O)O)NC(=O)[C@H](CO)NC(=O)[C@@H](N)Cc1c[nH]cn1)[C@@H](C)O)[C@@H](C)O)C(=O)N[C@H](C(=O)O)C(C)C [Peptide 7] |  |  | EC50 (U2OS-SCTR/β-arr2-GFP cells, ligand 20 min at 37 °C, vesicle area/cell by automated microscopy, read-out: EC50, β-arr2-GFP translocation assay): 155 ± 30.8 nM; Emax (U2OS-SCTR/β-arr2-GFP cells, normalized to wild type secretin = 100% curve maximum, read-out: intrinsic activity (efficacy), β-arr2-GFP translocation assay): 61.8 ± 4.9%
4 | CC(C)C[C@H](NC(=O)CNC(=O)[C@H](CCC(N)=O)NC(=O)[C@H](CC(C)C)NC(=O)[C@H](CC(C)C)NC(=O)[C@H](CCCNC(=N)N)NC(=O)[C@H](CCC(N)=O)NC(=O)[C@H](CC(C)C)NC(=O)[C@H](CCCNC(=N)N)NC(=O)[C@H](C)NC(=O)CNC(=O)[C@H](CCC(=O)O)NC(=O)[C@H](CCCCN)NC(=O)[C@H](CC(C)C)NC(=O)[C@H](CCCNC(=N)N)NC(=O)[C@H](CO)NC(=O)[C@H](CC(C)C)NC(=O)[C@H](CCC(=O)O)NC(=O)[C@H](CO)NC(=O)[C@@H](NC(=O)[C@H](Cc1ccccc1)NC(=O)[C@@H](NC(=O)CNC(=O)[C@H](CC(=O)O)NC(=O)[C@H](CO)NC(=O)[C@@H](N)Cc1c[nH]cn1)[C@@H](C)O)[C@@H](C)O)C(=O)N[C@H](C(=O)O)C(C)C [Peptide 68] | 114,30 % Sec | 9.53 | 
5 | CC(C)C[C@H](NC(=O)CNC(=O)[C@H](CCC(N)=O)NC(=O)[C@H](CC(C)C)NC(=O)[C@H](CC(C)C)NC(=O)[C@H](CCCNC(=N)N)NC(=O)[C@H](CCC(=O)O)NC(=O)[C@H](CC(C)C)NC(=O)[C@H](CCCNC(=N)N)NC(=O)[C@H](C)NC(=O)CNC(=O)[C@H](CCC(=O)O)NC(=O)[C@H](CCCNC(=N)N)NC(=O)[C@H](CC(C)C)NC(=O)[C@H](CCCNC(=N)N)NC(=O)[C@H](CO)NC(=O)[C@H](CC(C)C)NC(=O)[C@H](CCC(=O)O)NC(=O)[C@H](CO)NC(=O)[C@@H](NC(=O)[C@H](Cc1ccccc1)NC(=O)[C@@H](NC(=O)CNC(=O)[C@H](CC(=O)O)NC(=O)[C@H](CO)NC(=O)[C@@H](N)Cc1c[nH]cn1)[C@@H](C)O)[C@@H](C)O)C(=O)N[C@H](C(=O)O)C(C)C [Peptide 71] | 100,73 % Sec | 2.28 | 
6 | CC(C)C[C@H](NC(=O)CNC(=O)[C@H](CCC(N)=O)NC(=O)[C@H](CC(C)C)NC(=O)[C@H](CC(C)C)NC(=O)[C@H](CCCNC(=N)N)NC(=O)[C@H](CCC(N)=O)NC(=O)[C@H](CC(C)C)NC(=O)[C@H](CCCNC(=N)N)NC(=O)[C@H](C)NC(=O)CNC(=O)[C@H](CCC(=O)O)NC(=O)[C@H](CCCNC(=N)N)NC(=O)[C@H](CC(C)C)NC(=O)[C@H](CCCNC(=N)N)NC(=O)[C@H](CO)NC(=O)[C@H](CC(C)C)NC(=O)[C@H](CCC(=O)O)NC(=O)[C@H](CO)NC(=O)[C@@H](NC(=O)[C@H](Cc1ccccc1)NC(=O)[C@@H](NC(=O)CNC(=O)[C@H](CC(=O)O)NC(=O)[C@@H]1CCCN1C(=O)[C@@H](N)Cc1c[nH]cn1)[C@@H](C)O)[C@@H](C)O)C(=O)N[C@H](C(=O)O)C(C)C [Peptide 74] | 106,23 % Sec | 3.37 | 
7 | GLP-2: structurally related glucagon-like peptide 2 [reference compound] |  |  | SCTR activation (agonism) in the β-arr2-GFP translocation assay, in words (U2OS-SCTR/β-arr2-GFP cells): no SCTR activation

Second part, led by results:

Row | β-arrestin2-GFP agonism efficacy [1] | EC50 [2] [nM] | Molecule | also measured
8 | 90,37 % Sec |  | HSDGTFTsELSRLREGARLQRLLQGLV [Peptide 92, D-amino acid substitution variant of human secretin] | 
9 | 94,17 % Sec |  | CC(C)C[C@H](NC(=O)CNC(=O)[C@H](CCC(N)=O)NC(=O)[C@H](CC(C)C)NC(=O)[C@H](CC(C)C)NC(=O)[C@H](CCCNC(=N)N)NC(=O)[C@H](CCC(N)=O)NC(=O)[C@H](CC(C)C)NC(=O)[C@H](CCCNC(=N)N)NC(=O)[C@H](C)NC(=O)CNC(=O)[C@H](CCC(=O)O)NC(=O)[C@H](CCCNC(=N)N)NC(=O)[C@H](CC(C)C)NC(=O)[C@H](CCCNC(=N)N)NC(=O)[C@H](CO)NC(=O)[C@@H](CC(C)C)NC(=O)[C@H](CCC(=O)O)NC(=O)[C@H](CO)NC(=O)[C@@H](NC(=O)[C@H](Cc1ccccc1)NC(=O)[C@@H](NC(=O)CNC(=O)[C@H](CC(=O)O)NC(=O)[C@H](CO)NC(=O)[C@@H](N)Cc1c[nH]cn1)[C@@H](C)O)[C@@H](C)O)C(=O)N[C@H](C(=O)O)C(C)C [Peptide 94] | 
10 | 107,20 % Sec |  | CC(C)C[C@H](NC(=O)CNC(=O)[C@H](CCC(N)=O)NC(=O)[C@H](CC(C)C)NC(=O)[C@H](CC(C)C)NC(=O)[C@H](CCCNC(=N)N)NC(=O)[C@H](CCC(N)=O)NC(=O)[C@H](CC(C)C)NC(=O)[C@H](CCCNC(=N)N)NC(=O)[C@H](C)NC(=O)CNC(=O)[C@H](CCC(=O)O)NC(=O)[C@H](CCCNC(=N)N)NC(=O)[C@H](CC(C)C)NC(=O)[C@H](CCCNC(=N)N)NC(=O)[C@H](CO)NC(=O)[C@H](CC(C)C)NC(=O)[C@H](CCC(=O)O)NC(=O)[C@H](CO)NC(=O)[C@@H](NC(=O)[C@H](Cc1ccccc1)NC(=O)[C@@H](NC(=O)CNC(=O)[C@H](CC(=O)O)NC(=O)[C@H](CO)NC(=O)[C@H](N)Cc1c[nH]cn1)[C@@H](C)O)[C@@H](C)O)C(=O)N[C@H](C(=O)O)C(C)C [Peptide 86] | 
11 | 98,33 % Sec |  | HSDGTFtSELSRLREGARLQRLLQGLV [Peptide 91, D-amino acid substitution variant of human secretin] | 
